The text below walks through data of patent US20240116921A1, “LACTAM (HETERO)[…] DERIVATIVES AS INHIBITORS OF ERBB2” (EnLiven Therapeutics, Inc., priority 2020, published 2024).

Assay [1] concerns the target T1, phosphorylated ERBB2 (pERBB2) (Homo sapiens, UniProt P04626).
T1 construct: endogenous in cells; host or cells: BT-474
Kind of assay: Detection of phosphorylated ERBB2 (pERBB2) by ELISA in BT-474 cells. It is filed as cell-based. Conditions: four hours incubation. An outline of the steps: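 Phospho-ERBB2 in lysates was quantified by sandwich ELISA (A450, TMB) after 4 h compound exposure at 37 °C of BT-474 cells seeded at 2.0×10^4 per well. Compounds tested at 10 µM to 0.01 nM final in four-fold steps; activity normalized to DMSO (0.1%) high and cell-free low controls.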

In assay [2] the target is T2, phosphorylated EGFR (pEGFR) (Homo sapiens, UniProt P00533).
T2 construct: performed to measure phosphorylated EGFR levels using A431 cells (10% FBS); endogenous in cells; host or cells: A431
Kind of assay: Detection of phosphorylated EGFR (pEGFR) in EGF-stimulated A431 cells. It is filed as cell-based. The following applies: A431 cells (10% FBS), 4 hours incubation, EGF 30 ng/mL 10 minutes, AlphaLISA. An outline of the steps:
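AlphaLISA read-out of EGFR phosphorylation after a 10-min EGF pulse (30 ng/mL final). A431 cells (10% FBS) had been exposed to compound for 4 h at 37 °C. IC50 was fitted from % inhibition normalised to DMSO and staurosporine control lysates.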
On the technique in general: Alpha assays give light when donor and acceptor beads are brought close together.

In assay [3] the target is Ba/F3 ERBB2 A775_G776insYVMA (Homo sapiens, UniProt P04626, DUP772-775, cells depend on it). As to the kind of experiment: Cell viability assay, Ba/F3 ERBB2 A775_G776insYVMA. It is filed as cell-based, mouse. The following applies: Ba/F3 ERBB2 YVMA cells, cell viability, 72 hours, CellTiter Glo; Table B5; read-out: Ba/F3 ERBB2 YVMA, IC50. An outline of the steps:
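Viability after 72 h compound treatment (37 °C, 5% CO2) was quantified by CellTiter-Glo luminescence of intracellular ATP, with sigmoidal dose-response fitting. Cells were retrovirally engineered Ba/F3 lines whose growth depends on the mutant human ERBB2 in place of IL-3, plated at 3000 per well.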
In general terms: Cellular ATP, detected with luciferase, serves as a proxy for viable cell number.

The structures appear in SMILES notation. A value given as a limit tells only on which side of the number the result lay.

T2 sequence (P00533 25-1210): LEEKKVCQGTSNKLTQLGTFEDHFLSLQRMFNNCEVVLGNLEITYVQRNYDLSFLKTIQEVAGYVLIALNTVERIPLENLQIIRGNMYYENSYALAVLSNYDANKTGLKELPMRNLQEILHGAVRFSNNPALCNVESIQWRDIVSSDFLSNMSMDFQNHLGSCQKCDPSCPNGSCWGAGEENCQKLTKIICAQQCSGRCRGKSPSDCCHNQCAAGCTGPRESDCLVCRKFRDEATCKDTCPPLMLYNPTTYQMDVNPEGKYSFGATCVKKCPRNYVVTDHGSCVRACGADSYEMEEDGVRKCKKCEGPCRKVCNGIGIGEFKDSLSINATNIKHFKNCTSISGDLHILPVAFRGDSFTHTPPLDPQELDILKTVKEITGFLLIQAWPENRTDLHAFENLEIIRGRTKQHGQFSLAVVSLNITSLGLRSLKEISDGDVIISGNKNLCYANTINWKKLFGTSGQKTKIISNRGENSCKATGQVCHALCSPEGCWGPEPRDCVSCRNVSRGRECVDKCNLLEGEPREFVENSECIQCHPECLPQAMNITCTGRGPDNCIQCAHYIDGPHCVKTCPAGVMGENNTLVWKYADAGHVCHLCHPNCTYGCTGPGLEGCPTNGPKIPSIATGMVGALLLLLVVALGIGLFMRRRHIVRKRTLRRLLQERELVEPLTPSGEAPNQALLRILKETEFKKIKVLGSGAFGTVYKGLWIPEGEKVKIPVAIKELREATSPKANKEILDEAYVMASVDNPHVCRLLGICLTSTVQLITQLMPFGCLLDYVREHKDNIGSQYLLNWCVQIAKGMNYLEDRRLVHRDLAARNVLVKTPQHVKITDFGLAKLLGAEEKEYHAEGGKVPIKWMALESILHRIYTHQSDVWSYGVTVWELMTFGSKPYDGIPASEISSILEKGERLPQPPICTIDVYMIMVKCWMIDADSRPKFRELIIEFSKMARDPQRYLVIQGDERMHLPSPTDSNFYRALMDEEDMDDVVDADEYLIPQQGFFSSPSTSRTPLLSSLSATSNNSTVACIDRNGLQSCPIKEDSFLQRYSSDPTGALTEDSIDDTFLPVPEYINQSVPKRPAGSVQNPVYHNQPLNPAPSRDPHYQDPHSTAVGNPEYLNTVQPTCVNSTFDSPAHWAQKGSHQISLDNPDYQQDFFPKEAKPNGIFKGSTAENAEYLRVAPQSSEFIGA
Sequence of Ba/F3 ERBB2 A775_G776insYVMA (P04626 with tags, fused parts or gaps DUP772-775): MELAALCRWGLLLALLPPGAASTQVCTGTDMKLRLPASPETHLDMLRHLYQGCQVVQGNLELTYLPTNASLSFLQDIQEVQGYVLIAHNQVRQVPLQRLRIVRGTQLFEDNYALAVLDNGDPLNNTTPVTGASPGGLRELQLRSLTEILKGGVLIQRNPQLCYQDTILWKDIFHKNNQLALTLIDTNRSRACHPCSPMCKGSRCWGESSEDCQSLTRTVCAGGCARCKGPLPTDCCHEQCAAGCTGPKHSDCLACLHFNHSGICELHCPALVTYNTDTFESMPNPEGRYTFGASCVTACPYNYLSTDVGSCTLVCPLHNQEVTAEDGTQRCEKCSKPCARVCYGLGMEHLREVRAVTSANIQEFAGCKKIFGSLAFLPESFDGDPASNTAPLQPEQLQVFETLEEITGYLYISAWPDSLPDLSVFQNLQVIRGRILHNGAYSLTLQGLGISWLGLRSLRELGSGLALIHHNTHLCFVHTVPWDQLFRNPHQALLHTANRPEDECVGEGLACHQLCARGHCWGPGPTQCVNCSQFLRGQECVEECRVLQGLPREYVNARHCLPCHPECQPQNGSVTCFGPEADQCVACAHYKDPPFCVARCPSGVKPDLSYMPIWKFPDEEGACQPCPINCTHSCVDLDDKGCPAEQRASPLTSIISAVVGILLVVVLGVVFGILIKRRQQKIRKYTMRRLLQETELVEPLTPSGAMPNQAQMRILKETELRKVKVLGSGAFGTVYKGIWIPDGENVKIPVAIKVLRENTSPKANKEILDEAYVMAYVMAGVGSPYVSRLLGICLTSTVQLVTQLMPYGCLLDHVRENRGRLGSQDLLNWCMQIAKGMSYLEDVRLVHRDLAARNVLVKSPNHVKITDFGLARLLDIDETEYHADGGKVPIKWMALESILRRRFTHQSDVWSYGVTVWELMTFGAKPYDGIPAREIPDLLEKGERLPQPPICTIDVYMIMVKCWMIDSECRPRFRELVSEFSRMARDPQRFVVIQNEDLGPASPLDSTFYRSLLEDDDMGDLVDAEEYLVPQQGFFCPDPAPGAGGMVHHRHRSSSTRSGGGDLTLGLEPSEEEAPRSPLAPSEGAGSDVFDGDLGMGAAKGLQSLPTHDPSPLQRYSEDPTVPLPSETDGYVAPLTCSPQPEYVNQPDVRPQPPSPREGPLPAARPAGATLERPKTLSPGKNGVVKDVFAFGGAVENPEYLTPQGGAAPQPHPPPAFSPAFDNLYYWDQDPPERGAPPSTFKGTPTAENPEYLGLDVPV
T1 sequence (P04626 23-1255): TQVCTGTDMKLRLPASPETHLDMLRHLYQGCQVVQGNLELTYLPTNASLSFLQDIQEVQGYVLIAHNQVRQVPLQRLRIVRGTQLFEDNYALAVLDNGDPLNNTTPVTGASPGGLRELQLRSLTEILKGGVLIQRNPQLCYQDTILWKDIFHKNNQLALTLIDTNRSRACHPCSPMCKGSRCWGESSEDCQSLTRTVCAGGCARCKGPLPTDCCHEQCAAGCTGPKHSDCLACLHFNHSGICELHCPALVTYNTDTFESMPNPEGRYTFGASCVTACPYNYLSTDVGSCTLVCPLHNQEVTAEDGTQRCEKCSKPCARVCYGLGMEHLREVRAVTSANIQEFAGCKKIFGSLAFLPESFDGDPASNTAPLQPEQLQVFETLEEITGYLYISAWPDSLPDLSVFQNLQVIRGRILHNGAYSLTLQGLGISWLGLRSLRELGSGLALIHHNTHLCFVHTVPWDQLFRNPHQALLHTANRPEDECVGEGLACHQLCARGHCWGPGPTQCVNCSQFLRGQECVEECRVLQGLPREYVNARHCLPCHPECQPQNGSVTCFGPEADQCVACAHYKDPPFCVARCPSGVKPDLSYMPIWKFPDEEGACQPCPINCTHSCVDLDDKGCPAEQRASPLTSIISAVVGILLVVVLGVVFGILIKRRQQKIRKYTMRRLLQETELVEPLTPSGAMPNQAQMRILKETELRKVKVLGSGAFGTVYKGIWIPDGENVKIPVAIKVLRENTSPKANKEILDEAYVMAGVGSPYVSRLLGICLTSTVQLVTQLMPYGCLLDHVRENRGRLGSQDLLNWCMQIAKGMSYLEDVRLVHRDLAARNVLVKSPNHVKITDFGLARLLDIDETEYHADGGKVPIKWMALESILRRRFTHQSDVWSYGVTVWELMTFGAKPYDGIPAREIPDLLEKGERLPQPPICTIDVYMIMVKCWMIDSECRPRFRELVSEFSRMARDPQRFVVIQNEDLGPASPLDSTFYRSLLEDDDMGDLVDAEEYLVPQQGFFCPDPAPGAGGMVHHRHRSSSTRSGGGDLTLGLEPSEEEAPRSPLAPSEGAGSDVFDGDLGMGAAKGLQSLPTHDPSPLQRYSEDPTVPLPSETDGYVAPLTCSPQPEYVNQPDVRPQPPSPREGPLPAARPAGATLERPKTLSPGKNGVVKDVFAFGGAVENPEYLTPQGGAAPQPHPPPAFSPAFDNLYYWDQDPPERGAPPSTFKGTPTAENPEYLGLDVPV

In general, IC50 refers to the concentration that gives 50% inhibition. A high value points to weaker potency. On to `Cc1cc(Nc2ncnc3ccc(N4CC/C(=C\CN(C)C)C4=O)nc23)ccc1Oc1ccn2nnnc2c1` [Compound 108, (3E)-3-[2-(dimethylamino)ethylidene]-1-{4-[(3-methyl-4-{[1,2,3,4]tetrazolo[1,5-a]pyridin-7-yloxy}phenyl)amino]pyrido[3,2-d]pyrimidin-6-yl}pyrrolidin-2-one], for which the values for the IC50 in assay [1] and in assay [2] were 13.2 nM and 3410 nM, respectively. The GI50 in assay [3] is 11.1 nM.

Take `Cc1cc(Nc2ncnc3ccc(N4CC/C(=C\[C@H](C)N(C)C)C4=O)nc23)ccc1Oc1ccn2ncnc2c1` [Compound 113, (S,E)-1-(4-((4-([1,2,4]triazolo[1,5-a]pyridin-7-yloxy)-3-methylphenyl)amino)pyrido[3,2-d]pyrimidin-6-yl)-3-(2-(dimethylamino)propylidene)pyrrolidin-2-one]: the results for the concentration for half-maximal inhibition (IC50) in assay [1] and in assay [2] were 327 nM and over 10000 nM, respectively. Also, the GI50 in assay [3] is over 500 nM.

As to `Cc1cc(Nc2ncnc3ccc(N4CC/C(=C\[C@@H](C)N(C)C)C4=O)nc23)ccc1Oc1ccn2ncnc2c1` [Compound 114, (R,E)-1-(4-((4-([1,2,4]triazolo[1,5-a]pyridin-7-yloxy)-3-methylphenyl)amino)pyrido[3,2-d]pyrimidin-6-yl)-3-(2-(dimethylamino)propylidene)pyrrolidin-2-one], the IC50 was 31.1 nM in assay [1] and over 10000 nM in assay [2]. The GI50 in assay [3] was determined as 24.3 nM.

On to `[2H]C([2H])([2H])n1nnc2cc(Oc3ccc(Nc4ncnc5ccc(N6CC/C(=C\CN(C)C)C6=O)nc45)cc3C)ccc21` [Compound 117, (E)-3-(2-(dimethylamino)ethylidene)-1-(4-((3-methyl-4-((1-(methyl-d3)-1H-benzo[d][1,2,3]triazol-5-yl)oxy)phenyl)amino)pyrido[3,2-d]pyrimidin-6-yl)pyrrolidin-2-one], for which the IC50 in assay [1] was 19.2 nM; in assay [2] it was over 10000 nM. Moreover, in assay [3], the GI50 was found to be 2 nM.

With `Cc1cc(Nc2ncnc3ccc(N4CC/C(=C\CN(C)C)C4=O)nc23)ccc1Oc1ccc2[nH]cnc2c1` [Compound 118, (3E)-1-(4-{[4-(1H-1,3-benzodiazol-5-yloxy)-3-methylphenyl]amino}pyrido[3,2-d]pyrimidin-6-yl)-3-[2-(dimethylamino)ethylidene]pyrrolidin-2-one], the IC50 was found to be 10.3 nM in assay [1] and 177 nM in assay [2]. Besides, the GI50 in assay [3] was 1.55 nM.

Take `[2H]C([2H])([2H])n1cnc2cc(Oc3ccc(Nc4ncnc5ccc(N6CC/C(=C\CN(C)C)C6=O)nc45)cc3C)ccc21` [Compound 119, (E)-3-(2-(dimethylamino)ethylidene)-1-(4-((3-methyl-4-((1-(methyl-d3)-1H-benzo[d]imidazol-5-yl)oxy)phenyl)amino)pyrido[3,2-d]pyrimidin-6-yl)pyrrolidin-2-one]: the IC50 came to 15.4 nM in assay [1] and 521 nM in assay [2]. Also, the GI50 in assay [3] was 1.18 nM.

On to `Cc1cc(Nc2c(C#N)cnc3ccc(N4CC/C(=C\CN(C)C)C4=O)nc23)ccc1Oc1ccc2c(c1)ncn2C` [Compound 124, 6-[(3E)-3-[2-(dimethylamino)ethylidene]-2-oxopyrrolidin-1-yl]-4-({3-methyl-4-[(1-methyl-1,3-benzodiazol-5-yl)oxy]phenyl}amino)-1,5-naphthyridine-3-carbonitrile], for which the IC50 in assay [1] is 163 nM; in assay [2], over 10000 nM. Further, the GI50 in assay [3] came out at 34.2 nM.

Turning to `CN(C)C/C=C1\CCN(c2cc3c(Nc4ccc(Oc5cccnc5)c(F)c4)ncnc3cn2)C1=O` [Compound 125, (3E)-3-[2-(dimethylamino)ethylidene]-1-(4-{[3-fluoro-4-(pyridin-3-yloxy)phenyl]amino}pyrido[3,4-d]pyrimidin-6-yl)pyrrolidin-2-one], the IC50 stood at 42.8 nM in assay [1] and 1140 nM in assay [2]. Moreover, the GI50 in assay [3] is 56 nM.
